Details: Liquid, Vibrating tube method

CCCCCCC(=O)OCC(COC(=O)CCCCCC)(COC(=O)CCCCCC)COC(=O)CCCCCC [pentaerythritol tetraheptanoate]
Details	mass density [kg/m3]
303.14 K, 15632 kPa	980.3
303.14 K, 15661 kPa	980.3
303.14 K, 15697 kPa	980.2
303.14 K, 15727 kPa	980.3
303.14 K, 15793 kPa	980.4
303.14 K, 15884 kPa	980.5
303.14 K, 15938 kPa	980.5
303.14 K, 16023 kPa	980.5
303.14 K, 16056 kPa	980.5
303.14 K, 16112 kPa	980.6
303.14 K, 16138 kPa	980.6
303.14 K, 16199 kPa	980.7
303.14 K, 16259 kPa	980.6
303.14 K, 16286 kPa	980.6
303.14 K, 16377 kPa	980.7
303.14 K, 16405 kPa	980.8
303.14 K, 16470 kPa	980.7
303.14 K, 16655 kPa	981
303.14 K, 16744 kPa	980.9
303.14 K, 16780 kPa	980.9
303.14 K, 16840 kPa	981
303.14 K, 16876 kPa	981
303.14 K, 17172 kPa	981.2
303.14 K, 17203 kPa	981.2
303.14 K, 17235 kPa	981.3
303.14 K, 17267 kPa	981.3
303.14 K, 17439 kPa	981.4
303.14 K, 17478 kPa	981.3
303.14 K, 17511 kPa	981.3
303.14 K, 17543 kPa	981.3
303.14 K, 17576 kPa	981.4
303.14 K, 17615 kPa	981.3
303.14 K, 17648 kPa	981.5
303.14 K, 17688 kPa	981.4
303.14 K, 17722 kPa	981.5
303.14 K, 18010 kPa	981.6
303.14 K, 18086 kPa	981.7
303.14 K, 18423 kPa	981.9
303.14 K, 18547 kPa	981.9
303.14 K, 18582 kPa	981.9
303.14 K, 18643 kPa	982
303.14 K, 18679 kPa	981.9
303.14 K, 18709 kPa	982
303.14 K, 18745 kPa	982.1
303.14 K, 18776 kPa	982
303.14 K, 18806 kPa	982
303.14 K, 18836 kPa	982.2
303.14 K, 18874 kPa	982.1
303.14 K, 18904 kPa	982.1
303.14 K, 19140 kPa	982.3
303.14 K, 19172 kPa	982.2
303.14 K, 19205 kPa	982.4
303.14 K, 19237 kPa	982.3
303.14 K, 19276 kPa	982.4
303.14 K, 19309 kPa	982.5
303.14 K, 19518 kPa	982.4
303.14 K, 19558 kPa	982.6
303.14 K, 19592 kPa	982.5
303.14 K, 19625 kPa	982.6
303.14 K, 19666 kPa	982.5
303.14 K, 19700 kPa	982.5
303.14 K, 19734 kPa	982.6
303.14 K, 19808 kPa	982.7
303.14 K, 19842 kPa	982.6
303.14 K, 19884 kPa	982.6
303.14 K, 20108 kPa	982.9
303.14 K, 20178 kPa	982.8
303.14 K, 20221 kPa	982.9
303.14 K, 20257 kPa	982.9
303.14 K, 20293 kPa	982.9
303.14 K, 20850 kPa	983.3
303.14 K, 20889 kPa	983.2
303.14 K, 21395 kPa	983.7
303.14 K, 21485 kPa	983.6
303.14 K, 21938 kPa	983.8
303.14 K, 21981 kPa	983.8
303.14 K, 22061 kPa	983.9
303.14 K, 22488 kPa	984.1
303.14 K, 22529 kPa	984.1
303.14 K, 22605 kPa	984.2
303.14 K, 22942 kPa	984.4
303.14 K, 22983 kPa	984.4
303.14 K, 23655 kPa	984.8
303.14 K, 23688 kPa	984.8
303.14 K, 23722 kPa	984.7
303.14 K, 23763 kPa	984.8
303.14 K, 24089 kPa	985
303.14 K, 24131 kPa	985.1
303.14 K, 24166 kPa	985.1
303.14 K, 24356 kPa	985.1
303.14 K, 28039 kPa	987.2
303.14 K, 29427 kPa	988
303.15 K, 11258 kPa	977.6
303.15 K, 11434 kPa	977.8
303.15 K, 11462 kPa	977.7
303.15 K, 11546 kPa	977.9
303.15 K, 11738 kPa	978
303.15 K, 13121 kPa	978.8
303.15 K, 13570 kPa	979
303.15 K, 13874 kPa	979.2
303.15 K, 13902 kPa	979.2
303.15 K, 13922 kPa	979.2
303.15 K, 13972 kPa	979.4
303.15 K, 14222 kPa	979.5
303.15 K, 14324 kPa	979.5
303.15 K, 14456 kPa	979.6
303.15 K, 14482 kPa	979.7
303.15 K, 14511 kPa	979.6
303.15 K, 14536 kPa	979.7
303.15 K, 14567 kPa	979.7
303.15 K, 14592 kPa	979.6
303.15 K, 14618 kPa	979.8
303.15 K, 14643 kPa	979.6
303.15 K, 14669 kPa	979.7
303.15 K, 14835 kPa	979.7
303.15 K, 14866 kPa	979.8
303.15 K, 14893 kPa	979.8
303.15 K, 14920 kPa	979.9
303.15 K, 14947 kPa	979.9
303.15 K, 14979 kPa	979.9
303.15 K, 15006 kPa	979.9
303.15 K, 15179 kPa	980
303.15 K, 15268 kPa	980.1
303.15 K, 15330 kPa	980.1
303.15 K, 15358 kPa	980.1
303.15 K, 15511 kPa	980.2
303.15 K, 15757 kPa	980.3
303.15 K, 15823 kPa	980.4
303.15 K, 15852 kPa	980.4
303.15 K, 15911 kPa	980.5
303.15 K, 15969 kPa	980.5
303.15 K, 15996 kPa	980.5
303.15 K, 16084 kPa	980.4
303.15 K, 16171 kPa	980.5
303.15 K, 16226 kPa	980.7
303.15 K, 16314 kPa	980.7
303.15 K, 16348 kPa	980.7
303.15 K, 16441 kPa	980.7
303.15 K, 16499 kPa	980.7
303.15 K, 16527 kPa	980.8
303.15 K, 16556 kPa	980.8
303.15 K, 16591 kPa	980.8
303.15 K, 16620 kPa	980.9
303.15 K, 16684 kPa	980.8
303.15 K, 16714 kPa	981
303.15 K, 16809 kPa	980.9
303.15 K, 16906 kPa	981
303.15 K, 16937 kPa	981.1
303.15 K, 16967 kPa	981.1
303.15 K, 17004 kPa	981
303.15 K, 17035 kPa	981
303.15 K, 17066 kPa	981.1
303.15 K, 17103 kPa	981.1
303.15 K, 17134 kPa	981.1
303.15 K, 17305 kPa	981.2
303.15 K, 17337 kPa	981.2
303.15 K, 17369 kPa	981.4
303.15 K, 17407 kPa	981.3
303.15 K, 17756 kPa	981.5
303.15 K, 17796 kPa	981.5
303.15 K, 17831 kPa	981.5
303.15 K, 17865 kPa	981.5
303.15 K, 17899 kPa	981.6
303.15 K, 17940 kPa	981.7
303.15 K, 17975 kPa	981.7
303.15 K, 18052 kPa	981.6
303.15 K, 18128 kPa	981.7
303.15 K, 18164 kPa	981.8
303.15 K, 18201 kPa	981.7
303.15 K, 18237 kPa	981.8
303.15 K, 18282 kPa	981.7
303.15 K, 18319 kPa	981.9
303.15 K, 18356 kPa	981.8
303.15 K, 18394 kPa	981.8
303.15 K, 18458 kPa	981.9
303.15 K, 18488 kPa	981.8
303.15 K, 18517 kPa	981.8
303.15 K, 18612 kPa	982
303.15 K, 18935 kPa	982.2
303.15 K, 18973 kPa	982.2
303.15 K, 19005 kPa	982.2
303.15 K, 19038 kPa	982.3
303.15 K, 19070 kPa	982.2
303.15 K, 19102 kPa	982.2
303.15 K, 19342 kPa	982.4
303.15 K, 19381 kPa	982.5
303.15 K, 19414 kPa	982.5
303.15 K, 19448 kPa	982.5
303.15 K, 19484 kPa	982.6
303.15 K, 19774 kPa	982.5
303.15 K, 19918 kPa	982.7
303.15 K, 19954 kPa	982.7
303.15 K, 19989 kPa	982.8
303.15 K, 20030 kPa	982.7
303.15 K, 20066 kPa	982.9
303.15 K, 20143 kPa	982.9
303.15 K, 20336 kPa	982.9
303.15 K, 20372 kPa	982.9
303.15 K, 20409 kPa	983
303.15 K, 20454 kPa	983
303.15 K, 20490 kPa	983.1
303.15 K, 20527 kPa	983.1
303.15 K, 20572 kPa	983.1
303.15 K, 20609 kPa	983.2
303.15 K, 20647 kPa	983.1
303.15 K, 20691 kPa	983.2
303.15 K, 20729 kPa	983.3
303.15 K, 20767 kPa	983.1
303.15 K, 20812 kPa	983.2
303.15 K, 20936 kPa	983.2
303.15 K, 20976 kPa	983.4
303.15 K, 21014 kPa	983.4
303.15 K, 21054 kPa	983.3
303.15 K, 21101 kPa	983.4
303.15 K, 21140 kPa	983.4
303.15 K, 21179 kPa	983.5
303.15 K, 21227 kPa	983.4
303.15 K, 21267 kPa	983.4
303.15 K, 21314 kPa	983.5
303.15 K, 21354 kPa	983.4
303.15 K, 21444 kPa	983.6
303.15 K, 21526 kPa	983.6
303.15 K, 21576 kPa	983.5

Reference: the NIST ThermoML archive (doi:10.1021/je060271a)
